This note sets out measurements from US11629169B2, “Use of peptides as therapeutic agent for autoimmune diseases and bone diseases” (KINE SCIENCES CO., LTD., priority 2017, dated 2023).

Test [1] has as its system collagen-induced arthritis (CIA) mouse model. Briefly: Rheumatoid arthritis treatment effect in collagen-induced arthritis (CIA) mouse model. The format is in vivo, DBA/1J mouse. The note with it: CIA mice, intraperitoneally 3 times a week after second immunization; similar efficacy compared to positive control MTX. As for the experimental part:
In order to confirm a rheumatoid arthritis improvement effect of the peptides prepared in Example 1, a rheumatoid arthritis mouse model was prepared with reference to a known literature (Nat Protoc. 2007; 2 (5):
Specifically, a CIA mouse model is a mouse model most commonly used in a rheumatoid arthritis animal test as an autoimmune disease arthritis model having characteristics similar to human rheumatoid arthritis. In the CIA mouse model, bovine type II collagen (Chondrex, USA) was mixed and emulsified with a Freund's complete adjuvant (Chondrex, USA) at 1:1, and then first immunization was performed by injecting 50 μl of the emulsified collagen solution intradermally into a 6-week-old DBA/1J mouse tail. On 2 weeks after the first immunization, bovine type II collagen was mixed and emulsified with a Freund's incomplete adjuvant (Chondrex, USA) at 1:1, and then second immunization (boosting) was performed by injecting 50 μl of the emulsified collagen solution induced) intradermally into the mouse tail. After the second immunization, each peptide was intraperitoneally administered 3 times a week from the following day to observe a therapeutic effect of the peptides for rheumatoid arthritis.
In order to examine the progression of rheumatoid arthritis according to the peptide treatment of the present invention, the severity of rheumatoid arthritis over time was evaluated and measured by a rheumatoid arthritis progress index.
At this time, the arthritis progress index was evaluated as Points 0 to 4 per leg in accordance with the arthritis progress evaluation criteria by Rossoliniec, etc. in Table 2 below and shown to total Points 0 to 16 (sum of four legs). Thereafter, an average value of the results evaluated by the two observers was calculated to quantify the severity of arthritis.

Test [2] has as its system naive CD4+ T cells extracted from lymph nodes of the mouse. Put plainly: Th17 cell differentiation inhibition (CD4+IL-17+ T cell population). The format is cell-based. To be noted: IL-6 20 ng/ml and TGF-beta 5 ng/ml with TCR activation; peptide 10 ng/ml to 1000 ng/ml; 3 days; induced group 3.14%, non-induced 1.2%. As for the experimental part:
In order to confirm the efficacy of the synthetic peptides prepared in Example 1 to inhibit Th17 cell differentiation, naive CD4^+ T cells extracted from lymph nodes of the mouse were treated with IL-6 20 ng/ml and TGF-beta 5 ng/ml together with TCR activation to induce differentiation into Th17 cells.
At the same time, three peptides Pep2, Pep3, and Pep4 disclosed in Table 2 of Test Example 1 were treated at a concentration of 10 ng/ml to 1000 ng/ml, respectively. Then, after incubation for 3 days, CD4+IL-17+ T cell population was analyzed.

As for PSSPSS (Pep1), in test [1], the “arthritis improvement (arthritis progress index, total Points 0 to 16)” value is recorded as “efficacy of arthritis improvement was shown”.

In the case of PTPPTP (Pep3), in test [2], the “ratio of Th17 cells (CD4+IL-17+ T cell population)” value is listed as “reduced similarly to the group that did not induce differentiation”. In the case of PTSPTS (Pep4), the “ratio of Th17 cells (CD4+IL-17+ T cell population)” value in test [2] was “reduced similarly to the group that did not induce differentiation”. In addition, in test [1], the “arthritis improvement (arthritis progress index, total Points 0 to 16)” value is “efficacy of arthritis improvement was shown”. The corresponding values for SSPSSP (Pep2) are “reduced similarly to the group that did not induce differentiation” and “efficacy of arthritis improvement was shown”.

With STSSTS (Pep6), the “arthritis improvement (arthritis progress index, total Points 0 to 16)” value in test [1] was “efficacy of arthritis improvement was shown”.
